# Experimental data reported in US4663438A, “Novel nucleic acid-containing glycoprotein” (Kureha Kagaku Kogyo Kabushiki Kaisha, priority 1981, dated 1987).
# Tested on: sarcoma-180 cells
# Assay: Inhibition by monosaccharide of agglutination of sarcoma-180 cells due to the present substance
# Assay type: cell-based, mouse
# Conditions: present substance 3 mg with monosaccharide 1.5 mg, 30 min, 37° C.; blank test 18
# Experimental: (ii) Test on the inhibition by monosaccharide of agglutination of sarcoma-180 cells due to the present substance
# The same specimen of sarcoma-180 cells suspending in 0.5 ml of Hanks' solution at a rate of 1×10^6 cells/ml as in Test (i) and each 0.5 ml of the physiological saline solution containing 3 mg of the present substance and 1.5 mg of the respective monosaccharides set forth below, which was incubated for 30 min. at 37° C., then discarding the supernatant medium and washing the residue with Hanks' solution, the remaining residue was examined under a microscope to count the number of agglutinated lumps of the cells.
row,SMILES,Number of agglutinated lumps
1,O=C[C@H](O)[C@@H](O)[C@@H](O)[C@H](O)CO [D-galactose],118
2,C[C@H](O)[C@@H](O)[C@@H](O)[C@H](O)C=O [L-fucose],27
3,C[C@H](O)[C@H](O)[C@@H](O)[C@@H](O)C=O [L-rhamnose],25
4,CC(=O)N[C@@H]1[C@@H](O)[C@H](O)[C@@H](CO)O[C@H]1O [N--acetylglucosamine],85
5,CO[C@H]1O[C@H](CO)[C@@H](O)[C@H](O)[C@H]1O [methyl α-glucoside],115
6,COC1OC(CO)C(O)C(O)C1O (stereo not drawn) [methyl α-mannoside],35
